According to PubChem BioAssay AID1963825 (Molecular Pharmacology Branch, DTP, NCI, 2024):

Assay: Anticancer human tumor 997537-175-T-J1-PDC patient-derived colon adenocarcinoma cell line growth inhibition [POLQ]
Settings: 997537-175-T-J1-PDC complex spheroid viability, combination with POLQ inhibitors; for IC50: curve of first compound; for viability, T/C: stronger effect = lower value
Procedure, shortened: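 Patient-derived tumour cells were co-cultured with HUVEC and mesenchymal stem cells as multicellular spheroids at 37 °C. They were treated with POLQ inhibitors (novobiocin, ART-558, RP6685) alone or combined with other agents. Top concentrations were at or near clinical Cmax (otherwise 10 microM; SN-38 at 1 microM), decreasing in half-log steps.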
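Note: luminescence signal used as a surrogate for viable cells; spheroids exposed to drugs for seven days before readout.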

In the case of `O=C(Nc1ccc(O)c(NS(=O)(=O)c2ccc(F)cc2)c1)c1ccc(-c2ccccc2)cc1` + Cc1cccc(N(C)C(=O)C2C(O)CCN2c2nc(C)cc(C(F)(F)F)c2C#N)c1, the IC50 (second compound 0.0316 µM) is reported as > 10 µM, the IC50 (second compound 0.1 µM) is reported as > 10 µM and the IC50 (second compound 0.316 µM) is reported as > 10 µM. For the same compound, the IC50 (second compound 1 µM) was > 10 µM, the IC50 (second compound 3.16 µM) was > 10 µM and the IC50 (second compound 10 µM) was > 10 µM. The viability, T/C (second compound 0.0316 µM, first compound 0.0316 µM) was 105%, the viability, T/C (second compound 0.0316 µM, first compound 0.1 µM) was 105% and the viability, T/C (second compound 0.0316 µM, first compound 0.316 µM) was 99.4%. The viability, T/C (second compound 0.0316 µM, first compound 1 µM) was 100%, the viability, T/C (second compound 0.0316 µM, first compound 3.16 µM) was 101% and the viability, T/C (second compound 0.0316 µM, first compound 10 µM) was 72.7%. For the same compound, the viability, T/C (second compound 0.1 µM, first compound 0.0316 µM) was 107%, the viability, T/C (second compound 0.1 µM, first compound 0.1 µM) was 99.4% and the viability, T/C (second compound 0.1 µM, first compound 0.316 µM) was 93.9%. For the same compound, the viability, T/C (second compound 0.1 µM, first compound 1 µM) was 103%, the viability, T/C (second compound 0.1 µM, first compound 3.16 µM) was 91% and the viability, T/C (second compound 0.1 µM, first compound 10 µM) was 98.1%. For the same compound, the viability, T/C (second compound 0.316 µM, first compound 0.0316 µM) was 105%, the viability, T/C (second compound 0.316 µM, first compound 0.1 µM) was 91.9% and the viability, T/C (second compound 0.316 µM, first compound 0.316 µM) was 111%. For the same compound, the viability, T/C (second compound 0.316 µM, first compound 1 µM) was 103%, the viability, T/C (second compound 0.316 µM, first compound 3.16 µM) was 97.5% and the viability, T/C (second compound 0.316 µM, first compound 10 µM) was 92.5%. It also gave a viability, T/C (second compound 1 µM, first compound 0.0316 µM) of 93.7%, a viability, T/C (second compound 1 µM, first compound 0.1 µM) of 84.4% and a viability, T/C (second compound 1 µM, first compound 0.316 µM) of 94.9%. For the same compound, the viability, T/C (second compound 1 µM, first compound 1 µM) was 87.3%, the viability, T/C (second compound 1 µM, first compound 3.16 µM) was 111% and the viability, T/C (second compound 1 µM, first compound 10 µM) was 98.6%. The viability, T/C (second compound 3.16 µM, first compound 0.0316 µM) was 97.2%, the viability, T/C (second compound 3.16 µM, first compound 0.1 µM) was 106% and the viability, T/C (second compound 3.16 µM, first compound 0.316 µM) was 93%. For the same compound, the viability, T/C (second compound 3.16 µM, first compound 1 µM) was 80.6%, the viability, T/C (second compound 3.16 µM, first compound 3.16 µM) was 106% and the viability, T/C (second compound 3.16 µM, first compound 10 µM) was 91.7%. For the same compound, the viability, T/C (second compound 10 µM, first compound 0.0316 µM) was 96.8%, the viability, T/C (second compound 10 µM, first compound 0.1 µM) was 101% and the viability, T/C (second compound 10 µM, first compound 0.316 µM) was 108%. For the same compound, the viability, T/C (second compound 10 µM, first compound 1 µM) was 93%, the viability, T/C (second compound 10 µM, first compound 3.16 µM) was 89.5% and the viability, T/C (second compound 10 µM, first compound 10 µM) was 105%.
